Experimental data: ChEMBL document CHEMBL5291721, “A preclinical secondary pharmacology resource illuminates target-adverse drug reaction associations of marketed drugs” (Nat Commun, 2023)

How the values were obtained:
[1] = biological target: Vasopressin V2 receptor (Homo sapiens, UniProt P30518)
[2] = biological target: T1, Cholecystokinin receptor type A (Homo sapiens, UniProt P32238)
T1 sequence (P32238 whole entry): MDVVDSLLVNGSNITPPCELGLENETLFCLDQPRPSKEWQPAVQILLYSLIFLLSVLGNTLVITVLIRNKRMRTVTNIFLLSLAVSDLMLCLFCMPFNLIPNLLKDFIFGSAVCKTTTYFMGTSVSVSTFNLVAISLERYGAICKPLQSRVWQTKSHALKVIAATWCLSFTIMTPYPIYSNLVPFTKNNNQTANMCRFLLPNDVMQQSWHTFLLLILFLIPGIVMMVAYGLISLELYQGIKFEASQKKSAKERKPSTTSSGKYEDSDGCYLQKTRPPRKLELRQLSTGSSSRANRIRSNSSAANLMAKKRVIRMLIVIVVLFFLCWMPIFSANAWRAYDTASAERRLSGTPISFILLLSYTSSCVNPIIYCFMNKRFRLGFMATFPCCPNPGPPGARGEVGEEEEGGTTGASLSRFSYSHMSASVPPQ

[3] = biological target: Beta-1 adrenergic receptor (Homo sapiens, UniProt P08588); assay type: functional
[4] = biological target: T2, Muscarinic acetylcholine receptor M2 (Homo sapiens, UniProt P08172); assay type: functional, cell-based
T2 sequence (P08172 whole entry): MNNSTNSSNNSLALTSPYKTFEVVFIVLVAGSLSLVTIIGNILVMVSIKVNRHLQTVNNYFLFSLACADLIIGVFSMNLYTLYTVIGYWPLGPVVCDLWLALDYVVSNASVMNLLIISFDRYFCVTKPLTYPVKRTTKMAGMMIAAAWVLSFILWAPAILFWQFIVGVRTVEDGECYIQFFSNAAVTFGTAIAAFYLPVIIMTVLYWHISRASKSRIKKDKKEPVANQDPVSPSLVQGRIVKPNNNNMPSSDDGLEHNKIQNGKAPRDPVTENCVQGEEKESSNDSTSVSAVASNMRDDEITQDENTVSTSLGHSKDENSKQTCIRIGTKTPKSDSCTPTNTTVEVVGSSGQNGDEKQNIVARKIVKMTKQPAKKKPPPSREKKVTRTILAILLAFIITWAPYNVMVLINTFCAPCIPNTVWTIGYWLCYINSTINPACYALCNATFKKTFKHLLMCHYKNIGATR

[5] = biological target: T3, Gamma-aminobutyric acid receptor subunit alpha-1 (Rattus norvegicus, UniProt P62813)
[6] = biological target: T4, 5-hydroxytryptamine receptor 1A (Homo sapiens, UniProt P08908); assay type: functional, cell-based
T4 sequence (P08908 whole entry): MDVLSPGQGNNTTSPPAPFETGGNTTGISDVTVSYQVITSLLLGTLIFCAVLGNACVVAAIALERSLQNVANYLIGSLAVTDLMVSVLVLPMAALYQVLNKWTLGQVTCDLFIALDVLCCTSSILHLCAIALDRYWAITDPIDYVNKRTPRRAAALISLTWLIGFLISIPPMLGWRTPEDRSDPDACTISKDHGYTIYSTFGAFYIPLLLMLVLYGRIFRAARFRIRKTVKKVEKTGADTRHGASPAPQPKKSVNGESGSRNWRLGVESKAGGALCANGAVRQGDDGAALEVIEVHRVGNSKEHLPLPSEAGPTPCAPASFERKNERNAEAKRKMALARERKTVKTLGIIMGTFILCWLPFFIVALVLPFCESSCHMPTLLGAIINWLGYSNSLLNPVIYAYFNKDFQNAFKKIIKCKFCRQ

[7] = biological target: T5, Alpha-1A adrenergic receptor (Homo sapiens, UniProt P35348); assay type: functional, cell-based
T5 sequence (P35348 whole entry): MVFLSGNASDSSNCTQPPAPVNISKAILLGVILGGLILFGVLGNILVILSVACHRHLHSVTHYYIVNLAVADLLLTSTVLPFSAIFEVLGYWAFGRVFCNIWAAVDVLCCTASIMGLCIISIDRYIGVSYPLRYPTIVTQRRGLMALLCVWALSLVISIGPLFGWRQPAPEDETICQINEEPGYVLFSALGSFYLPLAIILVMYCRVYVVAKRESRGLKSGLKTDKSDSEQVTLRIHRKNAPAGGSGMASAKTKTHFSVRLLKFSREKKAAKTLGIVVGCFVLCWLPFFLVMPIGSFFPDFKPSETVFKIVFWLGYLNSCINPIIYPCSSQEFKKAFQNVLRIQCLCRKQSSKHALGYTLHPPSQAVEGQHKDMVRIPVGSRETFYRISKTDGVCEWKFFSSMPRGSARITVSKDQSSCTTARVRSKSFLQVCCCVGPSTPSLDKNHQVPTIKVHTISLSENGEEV

[8] = biological target: T4, 5-hydroxytryptamine receptor 1A; assay type: functional, cell-based; remark: listed apart in the source
[9] = biological target: Neuronal acetylcholine receptor subunit alpha-4 (Homo sapiens, UniProt P43681)
[10] = biological target: T6, Adenosine receptor A3 (Homo sapiens, UniProt P0DMS8)
T6 sequence (P0DMS8 whole entry): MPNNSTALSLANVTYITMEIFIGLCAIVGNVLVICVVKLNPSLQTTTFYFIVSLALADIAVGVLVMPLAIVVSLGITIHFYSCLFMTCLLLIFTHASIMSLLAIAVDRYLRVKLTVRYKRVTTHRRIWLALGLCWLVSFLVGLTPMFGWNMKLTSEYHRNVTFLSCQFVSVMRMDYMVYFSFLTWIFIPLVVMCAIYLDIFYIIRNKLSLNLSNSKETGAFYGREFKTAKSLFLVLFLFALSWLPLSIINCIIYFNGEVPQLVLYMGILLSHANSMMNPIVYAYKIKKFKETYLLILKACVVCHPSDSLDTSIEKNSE

[11] = biological target: 5-hydroxytryptamine receptor 2B (Homo sapiens, UniProt P41595); assay type: functional, cell-based
[12] = biological target: T3, Gamma-aminobutyric acid receptor subunit alpha-1; assay type: functional
[13] = biological target: cGMP-inhibited 3',5'-cyclic phosphodiesterase 3A (Homo sapiens, UniProt Q14432); assay type: functional
[14] = biological target: Kappa-type opioid receptor (Homo sapiens, UniProt P41145)
[15] = biological target: Cannabinoid receptor 1 (Homo sapiens, UniProt P21554); assay type: functional, cell-based
Note: assay procedure not described here.

5-hydroxytryptamine receptor 2B, sequence (P41595 whole entry): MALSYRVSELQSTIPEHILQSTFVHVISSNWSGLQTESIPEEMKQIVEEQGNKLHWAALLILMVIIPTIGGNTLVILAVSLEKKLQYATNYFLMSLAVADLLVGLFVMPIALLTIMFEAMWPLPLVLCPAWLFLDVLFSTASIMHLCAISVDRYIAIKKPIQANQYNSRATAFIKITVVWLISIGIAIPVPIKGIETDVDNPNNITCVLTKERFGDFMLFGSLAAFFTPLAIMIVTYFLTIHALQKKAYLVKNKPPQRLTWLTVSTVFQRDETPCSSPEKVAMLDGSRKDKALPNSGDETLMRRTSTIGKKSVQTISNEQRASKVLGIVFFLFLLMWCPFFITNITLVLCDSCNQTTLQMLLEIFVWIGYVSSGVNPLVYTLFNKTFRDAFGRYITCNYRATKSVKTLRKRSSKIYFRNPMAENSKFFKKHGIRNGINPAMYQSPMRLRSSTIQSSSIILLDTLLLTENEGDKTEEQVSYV
Beta-1 adrenergic receptor, sequence (P08588 whole entry): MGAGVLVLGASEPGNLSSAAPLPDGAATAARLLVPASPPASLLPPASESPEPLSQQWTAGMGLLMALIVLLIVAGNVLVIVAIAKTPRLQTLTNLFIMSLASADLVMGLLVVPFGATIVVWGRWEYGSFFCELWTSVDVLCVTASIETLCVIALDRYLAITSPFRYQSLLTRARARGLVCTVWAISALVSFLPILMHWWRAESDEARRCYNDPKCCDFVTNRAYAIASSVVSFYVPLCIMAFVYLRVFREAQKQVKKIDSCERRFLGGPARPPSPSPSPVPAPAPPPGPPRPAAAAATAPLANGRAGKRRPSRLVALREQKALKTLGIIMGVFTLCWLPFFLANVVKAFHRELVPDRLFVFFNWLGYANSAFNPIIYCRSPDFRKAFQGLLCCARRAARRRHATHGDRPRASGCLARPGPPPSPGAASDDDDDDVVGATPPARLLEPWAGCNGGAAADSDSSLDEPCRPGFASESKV
T3 sequence (P62813 whole entry): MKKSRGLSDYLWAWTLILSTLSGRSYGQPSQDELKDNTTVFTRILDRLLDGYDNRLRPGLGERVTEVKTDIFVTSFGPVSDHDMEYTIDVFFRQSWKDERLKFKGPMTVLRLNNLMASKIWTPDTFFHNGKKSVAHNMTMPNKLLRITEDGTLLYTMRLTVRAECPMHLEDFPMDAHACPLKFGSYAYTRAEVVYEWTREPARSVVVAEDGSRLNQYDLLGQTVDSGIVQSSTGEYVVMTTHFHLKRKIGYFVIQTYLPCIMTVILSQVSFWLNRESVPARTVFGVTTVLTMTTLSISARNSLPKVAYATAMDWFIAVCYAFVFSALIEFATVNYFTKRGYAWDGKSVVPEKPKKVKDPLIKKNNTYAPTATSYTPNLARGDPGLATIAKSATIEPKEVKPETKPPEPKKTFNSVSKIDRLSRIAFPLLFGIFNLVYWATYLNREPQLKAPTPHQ
cGMP-inhibited 3',5'-cyclic phosphodiesterase 3A, sequence (Q14432 whole entry): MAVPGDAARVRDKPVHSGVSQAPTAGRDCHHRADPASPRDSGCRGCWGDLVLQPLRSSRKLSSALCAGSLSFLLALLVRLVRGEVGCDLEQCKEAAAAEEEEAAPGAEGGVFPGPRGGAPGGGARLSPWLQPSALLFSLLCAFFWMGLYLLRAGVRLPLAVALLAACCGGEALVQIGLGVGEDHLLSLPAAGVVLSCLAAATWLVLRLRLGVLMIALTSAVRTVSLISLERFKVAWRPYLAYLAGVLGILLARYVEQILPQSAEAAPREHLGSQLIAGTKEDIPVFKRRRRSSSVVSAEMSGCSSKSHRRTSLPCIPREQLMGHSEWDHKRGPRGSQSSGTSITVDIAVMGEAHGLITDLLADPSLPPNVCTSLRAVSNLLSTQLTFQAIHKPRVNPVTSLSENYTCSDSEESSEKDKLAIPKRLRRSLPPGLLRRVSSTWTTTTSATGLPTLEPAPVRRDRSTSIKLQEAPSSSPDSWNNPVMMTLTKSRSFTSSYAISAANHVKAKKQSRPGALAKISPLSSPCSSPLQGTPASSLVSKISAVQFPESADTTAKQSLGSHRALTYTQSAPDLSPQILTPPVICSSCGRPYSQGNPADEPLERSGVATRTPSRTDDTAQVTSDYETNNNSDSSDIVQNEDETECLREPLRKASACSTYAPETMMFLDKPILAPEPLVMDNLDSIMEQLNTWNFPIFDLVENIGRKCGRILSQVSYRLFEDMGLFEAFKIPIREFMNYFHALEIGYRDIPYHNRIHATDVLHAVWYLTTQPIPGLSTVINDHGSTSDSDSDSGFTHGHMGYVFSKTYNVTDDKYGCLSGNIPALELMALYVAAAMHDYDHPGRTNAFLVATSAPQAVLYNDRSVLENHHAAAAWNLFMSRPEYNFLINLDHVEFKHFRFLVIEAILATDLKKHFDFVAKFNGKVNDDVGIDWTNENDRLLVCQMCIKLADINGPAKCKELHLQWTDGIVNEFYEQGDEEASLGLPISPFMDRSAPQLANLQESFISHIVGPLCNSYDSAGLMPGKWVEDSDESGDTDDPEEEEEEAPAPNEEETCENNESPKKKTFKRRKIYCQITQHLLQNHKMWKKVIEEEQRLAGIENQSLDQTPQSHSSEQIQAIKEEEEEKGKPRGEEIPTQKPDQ
Kappa-type opioid receptor, sequence (P41145 whole entry): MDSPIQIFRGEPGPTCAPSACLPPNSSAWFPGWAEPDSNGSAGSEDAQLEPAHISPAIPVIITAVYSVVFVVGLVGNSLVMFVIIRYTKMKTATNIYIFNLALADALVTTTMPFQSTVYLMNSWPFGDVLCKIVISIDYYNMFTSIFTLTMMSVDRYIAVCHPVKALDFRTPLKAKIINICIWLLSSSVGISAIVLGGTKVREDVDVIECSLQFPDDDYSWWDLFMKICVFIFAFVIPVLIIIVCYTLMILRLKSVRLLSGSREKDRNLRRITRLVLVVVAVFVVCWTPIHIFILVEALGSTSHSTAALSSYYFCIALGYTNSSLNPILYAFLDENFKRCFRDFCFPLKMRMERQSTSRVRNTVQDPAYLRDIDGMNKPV
Vasopressin V2 receptor, sequence (P30518 whole entry): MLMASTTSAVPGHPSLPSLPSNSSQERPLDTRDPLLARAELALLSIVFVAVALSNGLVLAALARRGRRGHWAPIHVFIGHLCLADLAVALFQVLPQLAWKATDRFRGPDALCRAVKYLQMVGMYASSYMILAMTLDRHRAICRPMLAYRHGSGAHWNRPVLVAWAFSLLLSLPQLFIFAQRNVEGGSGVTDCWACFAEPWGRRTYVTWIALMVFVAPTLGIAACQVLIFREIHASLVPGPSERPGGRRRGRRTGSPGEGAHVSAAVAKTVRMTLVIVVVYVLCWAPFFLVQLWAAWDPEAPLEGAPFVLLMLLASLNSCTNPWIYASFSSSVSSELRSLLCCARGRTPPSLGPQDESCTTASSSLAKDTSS
Neuronal acetylcholine receptor subunit alpha-4, sequence (P43681 whole entry): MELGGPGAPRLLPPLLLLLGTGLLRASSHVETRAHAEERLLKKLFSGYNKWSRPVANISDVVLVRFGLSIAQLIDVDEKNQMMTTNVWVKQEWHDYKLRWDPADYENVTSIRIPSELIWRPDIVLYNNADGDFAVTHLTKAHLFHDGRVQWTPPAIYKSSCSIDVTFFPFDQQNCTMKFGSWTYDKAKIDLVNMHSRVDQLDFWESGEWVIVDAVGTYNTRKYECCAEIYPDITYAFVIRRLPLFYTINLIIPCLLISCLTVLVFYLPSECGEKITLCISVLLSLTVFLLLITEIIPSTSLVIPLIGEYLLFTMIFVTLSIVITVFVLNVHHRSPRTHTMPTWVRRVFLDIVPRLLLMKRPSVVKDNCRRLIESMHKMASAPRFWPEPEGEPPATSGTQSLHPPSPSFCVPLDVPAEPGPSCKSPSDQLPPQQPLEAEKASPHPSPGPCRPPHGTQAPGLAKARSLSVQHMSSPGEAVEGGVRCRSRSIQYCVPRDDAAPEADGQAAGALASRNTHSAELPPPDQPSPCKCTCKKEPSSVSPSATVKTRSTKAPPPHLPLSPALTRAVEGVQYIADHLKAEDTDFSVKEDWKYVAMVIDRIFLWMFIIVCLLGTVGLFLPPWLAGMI
Cannabinoid receptor 1, sequence (P21554 whole entry): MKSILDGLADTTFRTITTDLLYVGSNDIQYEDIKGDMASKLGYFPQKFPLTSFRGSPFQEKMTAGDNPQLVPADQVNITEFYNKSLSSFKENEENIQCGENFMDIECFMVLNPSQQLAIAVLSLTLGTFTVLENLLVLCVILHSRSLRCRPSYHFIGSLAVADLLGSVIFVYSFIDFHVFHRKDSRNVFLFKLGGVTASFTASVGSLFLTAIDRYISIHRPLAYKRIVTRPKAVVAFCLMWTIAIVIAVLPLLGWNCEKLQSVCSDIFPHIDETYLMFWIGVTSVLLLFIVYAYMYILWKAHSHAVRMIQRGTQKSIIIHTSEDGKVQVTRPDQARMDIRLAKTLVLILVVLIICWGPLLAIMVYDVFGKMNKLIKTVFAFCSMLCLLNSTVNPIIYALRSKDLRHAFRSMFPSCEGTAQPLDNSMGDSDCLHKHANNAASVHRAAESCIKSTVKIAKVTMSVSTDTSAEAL

| Molecule | AC50 [1] [µM] | AC50 [2] [µM] | AC50 [3] [µM] | AC50 [4] [µM] | AC50 [5] [µM] | AC50 [6] [µM] | AC50 [7] [µM] | AC50 [8] [µM] | AC50 [9] [µM] | AC50 [10] [µM] | AC50 [11] [µM] | AC50 [12] [µM] | AC50 [13] [µM] | AC50 [14] [µM] | AC50 [15] [µM] |
| --- | --- | --- | --- | --- | --- | --- | --- | --- | --- | --- | --- | --- | --- | --- | --- |
| O=C1C(O)=C([C@H]2CC[C@H](c3ccc(Cl)cc3)CC2)C(=O)c2ccccc21 [ATOVAQUONE] | > 30 | > 30 | > 30 | > 30 | > 30 | > 30 | > 30 | > 30 | > 30 | > 30 | > 30 | > 30 | > 30 | > 30 |  |
| COc1ccc(CCNCC(O)COc2cccc(C)c2)cc1OC (stereo not given) [BEVANTOLOL] | > 10 | > 10 | 0.026 | > 10 | > 10 |  | > 30 | 1.2 | > 10 | > 10 | > 10 | > 10 | > 30 | > 10 | > 30 |
| Brc1c(NC2=NCCN2)ccc2nccnc12 [BRIMONIDINE] | > 30 | > 30 | > 30 | > 30 | > 30 |  | 0.645 | 5 | > 30 | > 30 | > 30 | > 30 | > 30 | > 30 | > 30 |
| CC(CC1c2ccccc2CCc2ccccc21)CN(C)C (stereo not given) [BUTRIPTYLINE] |  |  |  |  | > 30 | > 30 | > 30 |  |  |  | > 30 | > 30 | > 30 | > 30 | > 30 |
| CC(C)(C)NCC(O)COc1cccc2c1CCC(=O)N2 (stereo not given) [CARTEOLOL] | > 10 | > 10 |  | > 10 | > 10 | 8.8 | > 30 | > 10 | > 10 | > 10 | > 10 | > 10 | > 30 | 11.6 | > 30 |
| Clc1ccccc1C(c1ccccc1)(c1ccccc1)n1ccnc1 [CLOTRIMAZOLE] |  |  | > 10 | > 10 | > 10 | > 10 | > 30 | > 10 | > 10 |  | > 10 | > 10 |  | 0.746 | > 30 |
| COc1ccc2c3c1O[C@H]1[C@@H](O)CC[C@H]4[C@@H](C2)N(C)CC[C@@]341 [DIHYDROCODEINE] |  |  |  |  | > 30 | > 30 | > 30 | > 30 |  |  | > 30 | > 30 | > 30 | > 30 | > 30 |
| NC(=O)OCC(COC(N)=O)c1ccccc1 [FELBAMATE] | > 10 | > 10 | > 10 | > 10 | > 10 | > 10 |  | > 10 | > 10 | > 10 | > 10 | > 10 | > 30 | > 10 |  |
| Fc1ccc(C(c2ccccc2)(c2ccccc2F)n2ccnc2)cc1 (stereo not given) [FLUTRIMAZOLE] | > 30 | > 30 | > 30 | > 30 | > 30 |  | > 30 | > 30 | > 30 | 15 | > 30 | > 30 | > 30 | 0.93 | > 30 |
| Cc1c(OCC(F)(F)F)ccnc1C[S+]([O-])c1nc2ccccc2[nH]1 (stereo not given) [LANSOPRAZOLE] | > 30 | > 30 | > 10 | > 10 | > 10 | > 10 | > 30 | > 10 |  | 7.77 | > 10 | > 10 | > 10 | 4.88 | > 30 |
| Cc1cc(C(C)(C)C)c(O)c(C)c1CC1=NCCN1 [OXYMETAZOLINE] |  |  |  | 23 |  |  |  | 0.0094 |  | > 30 | 0.266 | > 30 | > 30 |  | > 30 |
| C[C@H]1COc2c(C3(N)CC3)c(F)cc3c(=O)c(C(=O)O)cn1c23 [PAZUFLOXACIN] | > 10 | > 10 | > 10 | > 10 | > 10 | > 10 |  | > 10 | > 10 | > 10 | > 10 | > 10 | > 30 | > 10 |  |
| CC/C(=C(\c1ccccc1)c1ccc(OCCN(C)C)cc1)c1ccccc1 [TAMOXIFEN] |  |  | 17.6 | > 10 | > 10 | > 10 | > 30 | > 10 | > 30 |  | > 10 | > 10 |  | 8.53 |  |
| COc1cccc(C2(O)CCCCC2CN(C)C)c1 (stereo not given) [TRAMADOL] | > 30 | > 30 | > 10 |  | > 10 | > 10 | > 30 | > 10 |  | > 30 | > 10 | > 10 | > 30 | > 10 | > 30 |
| Cc1nnc2n1-c1ccc(Cl)cc1C(c1ccccc1Cl)=NC2 [TRIAZOLAM] | > 30 | > 30 | > 10 | > 10 | > 10 | > 10 | 14 | > 10 | > 10 | > 30 | > 10 | 0.0011 | > 30 |  | > 30 |
| CC1(C)CCC(CN2CCN(c3ccc(C(=O)NS(=O)(=O)c4ccc(NCC5CCOCC5)c([N+](=O)[O-])c4)c(Oc4cnc5[nH]ccc5c4)c3)CC2)=C(c2ccc(Cl)cc2)C1 [VENETOCLAX] |  |  |  |  |  |  |  |  |  | 2.3 |  |  | > 30 |  |  |
| THIMEROSAL |  |  |  |  |  |  |  |  |  |  | > 30 |  |  |  |  |
